Laboratory results: PubChem BioAssay (NCI)
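1) Cells in 96-well plates. 2) Compound, 48 h, 5 concentrations. 3) Linear interpolation between surrounding doses. 4) Unreached endpoint = highest concentration. TGI: total growth inhibition.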

Key:
Test in all cases: growth of human tumour cells (NCI), 48 h
786-0 renal = tested on: 786-0 renal
A498 renal = tested on: A498 renal
A549 NSCLC = tested on: A549 NSCLC
ACHN renal = tested on: ACHN renal
BT-549 breast = tested on: BT-549 breast
CAKI-1 renal = tested on: CAKI-1 renal
CCRF-CEM leukemia = tested on: CCRF-CEM leukemia
COLO 205 colon = tested on: COLO 205 colon
DU-145 prostate = tested on: DU-145 prostate
EKVX NSCLC = tested on: EKVX NSCLC
HCC-2998 colon = tested on: HCC-2998 colon
HCT-116 colon = tested on: HCT-116 colon
HCT-15 colon = tested on: HCT-15 colon
HL-60(TB) leukemia = tested on: HL-60(TB) leukemia
HOP-62 NSCLC = tested on: HOP-62 NSCLC
HOP-92 NSCLC = tested on: HOP-92 NSCLC
HS 578T breast = tested on: HS 578T breast
HT29 colon = tested on: HT29 colon
IGROV1 ovarian = tested on: IGROV1 ovarian
K-562 leukemia = tested on: K-562 leukemia
KM12 colon = tested on: KM12 colon
LOX IMVI melanoma = tested on: LOX IMVI melanoma
M14 melanoma = tested on: M14 melanoma
MCF7 breast = tested on: MCF7 breast
MDA-MB-231 breast = tested on: MDA-MB-231 breast
MDA-MB-435 = tested on: MDA-MB-435
MDA-N = tested on: MDA-N
MOLT-4 leukemia = tested on: MOLT-4 leukemia
NCI-H226 lung = tested on: NCI-H226 lung
NCI-H23 lung = tested on: NCI-H23 lung
NCI-H460 lung = tested on: NCI-H460 lung
NCI/ADR-RES ovarian = tested on: NCI/ADR-RES ovarian
OVCAR-3 ovarian = tested on: OVCAR-3 ovarian
OVCAR-4 ovarian = tested on: OVCAR-4 ovarian
OVCAR-5 ovarian = tested on: OVCAR-5 ovarian
OVCAR-8 ovarian = tested on: OVCAR-8 ovarian
PC-3 prostate = tested on: PC-3 prostate
RPMI-8226 leukemia = tested on: RPMI-8226 leukemia
RXF 393 renal = tested on: RXF 393 renal
SF-268 CNS = tested on: SF-268 CNS
SF-295 CNS = tested on: SF-295 CNS
SF-539 CNS = tested on: SF-539 CNS
SK-MEL-2 melanoma = tested on: SK-MEL-2 melanoma
SK-MEL-28 melanoma = tested on: SK-MEL-28 melanoma
SK-MEL-5 melanoma = tested on: SK-MEL-5 melanoma
SK-OV-3 ovarian = tested on: SK-OV-3 ovarian
SN12C renal = tested on: SN12C renal
SNB-19 CNS = tested on: SNB-19 CNS
SNB-75 CNS = tested on: SNB-75 CNS
SR leukemia = tested on: SR leukemia
SW-620 colon = tested on: SW-620 colon
T-47D breast = tested on: T-47D breast
TK-10 renal = tested on: TK-10 renal
U251 CNS = tested on: U251 CNS
UACC-257 melanoma = tested on: UACC-257 melanoma
UACC-62 melanoma = tested on: UACC-62 melanoma
UO-31 renal = tested on: UO-31 renal
MALME-3M melanoma = tested on: MALME-3M melanoma
NCI-H522 lung = tested on: NCI-H522 lung

Measured: TGI

O=C(C/C(=N/O)C(F)(F)F)c1cccs1
> 100 µM: 786-0 renal | A498 renal | A549 NSCLC | ACHN renal | BT-549 breast | CAKI-1 renal | CCRF-CEM leukemia | COLO 205 colon | DU-145 prostate | EKVX NSCLC | HCC-2998 colon | HCT-116 colon | HCT-15 colon | HL-60(TB) leukemia | HOP-62 NSCLC | HOP-92 NSCLC | HS 578T breast | HT29 colon | IGROV1 ovarian | K-562 leukemia | KM12 colon | LOX IMVI melanoma | M14 melanoma | MCF7 breast | MDA-MB-231 breast | MDA-MB-435 | MDA-N | MOLT-4 leukemia | NCI-H226 lung | NCI-H23 lung | NCI-H460 lung | NCI/ADR-RES ovarian | OVCAR-3 ovarian | OVCAR-4 ovarian | OVCAR-5 ovarian | OVCAR-8 ovarian | PC-3 prostate | RPMI-8226 leukemia | RXF 393 renal | SF-268 CNS | SF-295 CNS | SF-539 CNS | SK-MEL-2 melanoma | SK-MEL-28 melanoma | SK-MEL-5 melanoma | SK-OV-3 ovarian | SN12C renal | SNB-19 CNS | SNB-75 CNS | SR leukemia | SW-620 colon | T-47D breast | TK-10 renal | U251 CNS | UACC-257 melanoma | UACC-62 melanoma | UO-31 renal

CCN(CC)c1ccc(/C=C2\CCc3ccc([N+](=O)[O-])cc3C2=O)cc1
24.3 µM: SNB-75 CNS
2.21 µM: HT29 colon
0.523 µM: MDA-N
> 48.9 µM: NCI-H460 lung
5.33 µM: HL-60(TB) leukemia
0.744 µM: MDA-MB-435
> 100 µM: 786-0 renal | A549 NSCLC | ACHN renal | BT-549 breast | CAKI-1 renal | CCRF-CEM leukemia | COLO 205 colon | DU-145 prostate | EKVX NSCLC | HCC-2998 colon | HCT-116 colon | HCT-15 colon | HOP-92 NSCLC | HS 578T breast | IGROV1 ovarian | K-562 leukemia | KM12 colon | LOX IMVI melanoma | M14 melanoma | MALME-3M melanoma | MCF7 breast | MDA-MB-231 breast | MOLT-4 leukemia | NCI-H226 lung | NCI-H23 lung | NCI-H522 lung | OVCAR-4 ovarian | OVCAR-5 ovarian | OVCAR-8 ovarian | PC-3 prostate | RPMI-8226 leukemia | SF-268 CNS | SK-MEL-28 melanoma | SK-MEL-5 melanoma | SK-OV-3 ovarian | SN12C renal | SR leukemia | SW-620 colon | T-47D breast | TK-10 renal | U251 CNS | UACC-62 melanoma | UO-31 renal
> 30.7 µM: NCI/ADR-RES ovarian
56.9 µM: OVCAR-3 ovarian
7.09 µM: SF-539 CNS
> 29.9 µM: RXF 393 renal
7.55 µM: SF-295 CNS
> 30.1 µM: SNB-19 CNS
69.9 µM: A498 renal
